# Measured values from patent publication US12497364B2, “Compound for the determination of the protein FKBP12 and a sensor unit comprising it” (UNIVERSITA DEGLI STUDI DI FIRENZE, priority 2019, dated 2025).
# How the values were obtained:
# FKBP12 [1] = target: T1, FKBP12 (Homo sapiens, UniProt P62942); assay: QCM microgravimetric measurement of FKBP12 bound to the self-assembled monolayer (SAM), Langmuir fit; assay type: binding; settings: for Binding of FKBP12 in solution to the SAM (FIG. 5): mass of FKBP12 bound versus FKBP12 concentration in solution
# T1 construct: purchased Interuniversity Magnetic Resonance Consortium of Paramagnetic Metalloproteins, CIRMMP (Florence, Italy); host or cells: Escherichia coli
# Method: FKBP12 expressed in Escherichia coli, molecular weight 11900, purity >95% was supplied by the Interuniversity Magnetic Resonance Consortium of Paramagnetic Metalloproteins, CIRMMP (Florence, Italy). The purity of FKBP12 was determined by SDS electrophoresis. K2HPO4 and KH2PO4 for the preparation of the phosphate buffer was obtained from Sigma-Aldrich (Italy). All measurements were made using ultrapure water (resistivity=18 MΩ cm, pH=5.6 at 20° C.) obtained with a Milli-RO equipment coupled with a Milli-Q set up (Millipore, Italy).
# (§1) The concentration of the stock solutions of FKBP12 in PBS buffer (pH 7.4, 0.15 M NaCl) was checked by UV/Vis measurements using ε280=9970 M^−1 cm^−1. The stock solution of FKBP12 was diluted to reach the concentrations used for the calibration straight line.
# (§2) The microgravimetric analyses were carried out with a Quartz-Crystal microbalance (QCM-Z 500 from KSV-Finland). This instrumentation is equipped with a Peltier element for controlling the temperature inside the measurement chamber. All experiments were performed at a temperature of T=20.0±0.1° C.
# The frequency and dissipation data for all recorded harmonics were processed with the QCMBrowse software which directly provides adsorbed mass in nanograms/cm^2, thickness of the monolayer in nanometers and viscoelastic parameters of the system.
# The gold-coated piezoelectric quartz support covered with the SAMs as described above in Example 2, was brought into contact with solutions of increasing concentration of the FKBP12 protein and the concentration of the protein bound to the self-assembled monolayer SAM at saturation was recorded with gravimetric measurements.
# Two different miniaturized versions of an open chamber QCM quartz crystal microbalance (from QCM KSV, Finland and an OpenQCM, Italy modified by the inventors) were also used as a device, allowing the use of small measurement volumes (less than 100 microliters) of the solution to analyse.
# Again with reference to FIG. 5, it can be observed that in all the examined cases there is a saturation trend of the curves, which flatten once the sites available for binding the FKBP protein are exhausted. Considering the structure reached at this concentration as the final equilibrium structure, the relative structural parameters reported in the following Table 2 were calculated.
# The trend shown in FIG. 5 can be rationalized through the Langmuir binding and/or adsorption equation: Δm/A=(Δm/A)sat[C]/[C]+kd
# The application of this model to the data obtained from the microgravimetric measurements allowed to obtain a detailed picture of the interaction mechanism and the energetics involved, in particular we obtained the maximum surface density of FKBP12 (to saturation), the dissociation constant Kd for FKBP12/receptor in the nanosensor and free energy of physi-sorption. The values obtained are shown in Table 3 below, for all the types of SAMs examined.
# FKBP12 [2] = target: T1, FKBP12; assay: Duration of operation of the SAM and its reconditioning (QCM); settings: reconditioning with imidazole or with ethanol
# Method: The microgravimetric measurements described above were repeated on freshly prepared SAMs or aged up to 4 months, finding the same results, at least for SAMs stored in closed containers saturated with N2.
# Measurements were also carried out on SAMs already used for a measurement, after reconditioning with imidazole or with ethanol. […] The same result was achieved by leaving in incubation the SAM in solution of the reconditioning solvent.
# FKBP12 [3] = target: T1, FKBP12; assay: Calibration straight line for FKBP12 on the SAM nanosensor (QCM)
# Method: as §1, §2
# From the analysis of the calibration straight lines obtained for the systems examined, the linearity intervals and the experimental limit of detection (LOD) were obtained (wherein LOD means the smallest amount of measurable analyte with acceptable accuracy and precision) for each sensor tested, considering that the maximum sensitivity to the mass in the cell for liquids of the instrumentation used is 0.5 ng/cm^2. This limit may vary depending on the analytical instrumentation adopted for the same SAM used.
# T1 sequence (P62942 whole entry): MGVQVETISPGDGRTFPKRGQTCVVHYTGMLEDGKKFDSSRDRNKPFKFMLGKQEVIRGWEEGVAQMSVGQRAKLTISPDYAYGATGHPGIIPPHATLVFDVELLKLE
QCM frequency before addition of FKBP12 versus after rinsing with the reconditioning solvent (FKBP12 [2]),"Linear interval of the response to FKBP12 (FKBP12 [3]; FKBP12 concentration in solution, QCM mass sensitivity 0.5 ng/cm^2) [pM]",Limit of Detection (LOD) (FKBP12 [3]; LOD = 3x (y-intercept standard deviation)/slope of the calibration curve) [pM],"(M/Area)max (Langmuir FIT), maximum surface density of FKBP12 at saturation (FKBP12 [1]; Table 2, SAM on gold-coated quartz crystal) [ng/cm^2]","Kd (FKBP12 [1]; Table 2, SAM on gold-coated quartz crystal, T=20.0 °C, pseudo-Kd for mixed systems) [nM]",(Maa/Area)max (Langmuir FIT) (FKBP12 [1]; Table 3) [ng/cm^2],"Area available for FKBP12 to saturation (FKBP12 [1]; Table 3, experimental data, at saturation) [Å^2]",Compound,Binding of FKBP12 in solution to the SAM (FIG. 5) (FKBP12 [1])
,,,,,,,"CCCCCCCCCCCCS [C12SH, reference compound]",no interaction with the FKBP protein in solution is observed
identical,10 to 800,8.0,123,0.75,123,1910,"O=C(CCCCCCCCCCS)Oc1ccc(C(=O)C(=O)N2CCCC[C@H]2C(=O)NCCCc2ccccc2)cc1 [GPS-SH1, (S)-4-(2-oxo-2-(2-((3-phenylpropyl)carbamoyl)piperidin-1-yl)acetyl)phenyl 11-mercaptoundecanoate]",binds
